For the test, the system named is P388 leukemia ip, CD2F1 mice, survival T/C. The experiment in a line: NCI In Vivo Anticancer Drug Screen. Data for tumor model P388 Leukemia (intraperitoneal) in CD2F1 (CDF1) mice. Conditions: endpoint: median survival time, higher = longer survival. The procedure, abridged:
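Mice carrying the transplanted tumor received test compound or vehicle. Survival was recorded in each group, and the value is the treated-group measurement divided by that of the vehicle-treated control group.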

[1] abbreviates: dose: 50.0 mg/kg/injection, schedule: Q01DX009 (ip), vehicle: saline with Tween-80.
[2] abbreviates: dose: 50.0 mg/kg/injection, schedule: Q01DX005 (ip), vehicle: saline.
[3] abbreviates: dose: 100.0 mg/kg/injection, schedule: Q01DX001 (ip), vehicle: Klucel (hydroxypropylcellulose) (HPC).
The mark [4] stands for this setting: dose: 200.0 mg/kg/injection, schedule: Q01DX001 (ip), vehicle: Klucel (hydroxypropylcellulose) (HPC).
The mark [5] stands for this setting: dose: 100.0 mg/kg/injection, schedule: Q01DX009 (ip), vehicle: saline with Tween-80.
Where [6] appears, read: dose: 200.0 mg/kg/injection, schedule: Q01DX009 (ip), vehicle: saline with Tween-80.

“And” between values parts separate entries of the source, which are not always exact repeats. Identical values can stand only once. Toxic doses and inconclusive results are not listed.

In the case of `CCS(=O)(=O)Nc1cccc(Nc2c3cccc(C)c3nc3c(C)cccc23)c1OC`, the T/C runs as follows: (dose: 0.7 mg/kg/injection, schedule: Q01DX009 (ip), vehicle: saline with Tween-80) 121 % of control; (dose: 5.5 mg/kg/injection, schedule: Q01DX009 (ip), vehicle: saline with Tween-80) 157 % of control; (dose: 6.25 mg/kg/injection, schedule: Q01DX009 (ip), vehicle: saline with Tween-80) 171 % of control; (dose: 11.0 mg/kg/injection, schedule: Q01DX009 (ip), vehicle: saline with Tween-80) 172 % of control and 217 % of control; (dose: 12.5 mg/kg/injection, schedule: Q01DX009 (ip), vehicle: saline with Tween-80) 177 % of control; (dose: 16.7 mg/kg/injection, schedule: Q01DX009 (ip), vehicle: saline with Tween-80) 220 % of control. The T/C is 155 % of control and 266 % of control (dose: 25.0 mg/kg/injection, schedule: Q01DX009 (ip), vehicle: saline with Tween-80); 86 % of control (dose: 37.5 mg/kg/injection, schedule: Q01DX009 (ip), vehicle: saline with Tween-80); 91 % of control under setting [1].

`[Co+2].[O-]c1cc2ccccc2cc1/C=N/c1ccccn1.[O-]c1cc2ccccc2cc1/C=N/c1ccccn1.[OH3+].[OH3+]`: the T/C by setting is: (dose: 12.5 mg/kg/injection, schedule: Q04DX002 (ip), vehicle: saline with Tween-80) 93 % of control; (dose: 25.0 mg/kg/injection, schedule: Q04DX002 (ip), vehicle: saline with Tween-80) 91 % of control; (dose: 50.0 mg/kg/injection, schedule: Q04DX002 (ip), vehicle: saline with Tween-80) 88 % of control.

With `O=C(O)c1c(Cl)c(Cl)c(Cl)c(Cl)c1-c1c2ccc(=O)cc-2oc2cc(O)ccc12`, the T/C by setting is: (dose: 60.0 mg/kg/injection, schedule: Q01DX005 (ip), vehicle: saline with Tween-80) 100 % of control; (dose: 120.0 mg/kg/injection, schedule: Q01DX005 (ip), vehicle: saline with Tween-80) 100 % of control; (dose: 240.0 mg/kg/injection, schedule: Q01DX005 (ip), vehicle: saline with Tween-80) 96 % of control.

`COc1ccc2oc3c(ccc(=O)n3C)c(=O)c2c1`: the T/C is 99 % of control (dose: 0.69 mg/kg/injection, schedule: Q01DX001 (ip), vehicle: saline with Tween-80); 96 % of control (dose: 138.0 mg/kg/injection, schedule: Q01DX001 (ip), vehicle: saline with Tween-80); 91 % of control (dose: 276.0 mg/kg/injection, schedule: Q01DX001 (ip), vehicle: saline with Tween-80).

On to `CN=C(NC)c1cccc(NC(=O)/C=C\c2ccc(/C=C/C(=O)Nc3cccc(C(=NC)NC)c3)cc2)c1`, for which, for the setting “dose: 1.56 mg/kg/injection, schedule: Q01DX005 (ip), vehicle: saline with Tween-80”, the T/C is 121 % of control.

Turning to `COC1=CCC(Cc2ccc[nH]2)=CC1`, the T/C (dose: 100.0 mg/kg/injection, schedule: Q01DX001 (ip), vehicle: distilled water + Tween-80 + alcohol) is 98 % of control; the T/C (dose: 200.0 mg/kg/injection, schedule: Q01DX001 (ip), vehicle: distilled water + Tween-80 + alcohol) is 105 % of control; the T/C (dose: 400.0 mg/kg/injection, schedule: Q01DX001 (ip), vehicle: distilled water + Tween-80 + alcohol) is 107 % of control.

As for `O=C1C=CC(=Nc2cc(Br)c(O)c(Br)c2)C=C1`, the T/C (dose: 12.5 mg/kg/injection, schedule: Q01DX005 (ip), vehicle: saline) was 103 % of control; the T/C (dose: 25.0 mg/kg/injection, schedule: Q01DX005 (ip), vehicle: saline) was 99 % of control; the T/C under setting [2] was 89 % of control and 95 % of control.

Turning to `CC(=O)OCC#CCN1CCCCC1C` (stereo not drawn), the T/C under setting [2] is 111 % of control; the T/C (dose: 100.0 mg/kg/injection, schedule: Q01DX005 (ip), vehicle: saline) was 101 % of control; the T/C (dose: 200.0 mg/kg/injection, schedule: Q01DX005 (ip), vehicle: saline) was 103 % of control.

Take `CC1c2ccccc2CC(CCN(C)C)c2ccccc21` (stereo not drawn): the T/C is, setting by setting: (dose: 6.25 mg/kg/injection, schedule: Q01DX005 (ip), vehicle: saline with Tween-80) 101 % of control and 102 % of control and 106 % of control; (dose: 12.5 mg/kg/injection, schedule: Q01DX005 (ip), vehicle: saline with Tween-80) 101 % of control and 109 % of control (2×); (dose: 25.0 mg/kg/injection, schedule: Q01DX005 (ip), vehicle: saline with Tween-80) 109 % of control and 97 % of control; (dose: 50.0 mg/kg/injection, schedule: Q01DX005 (ip), vehicle: saline with Tween-80) 110 % of control.

For the compound `CNc1cc(=O)[nH]c(-c2ccccc2)n1`, the T/C is, setting by setting: (dose: 45.0 mg/kg/injection, schedule: Q01DX009 (ip), vehicle: saline with Tween-80) 89 % of control; (dose: 90.0 mg/kg/injection, schedule: Q01DX009 (ip), vehicle: saline with Tween-80) 97 % of control; (dose: 180.0 mg/kg/injection, schedule: Q01DX009 (ip), vehicle: saline with Tween-80) 105 % of control.

Regarding `O/N=C/c1c(Cl)nc2sccn12`, the T/C by setting is: (dose: 50.0 mg/kg/injection, schedule: Q01DX001 (ip), vehicle: Klucel (hydroxypropylcellulose) (HPC)) 100 % of control; under setting [3], 100 % of control and 91 % of control; under setting [4], 89 % of control and 97 % of control.

As for `CCCCC(=O)N1C(=O)/C(=C\N(C)C)c2cc(C=O)ccc21`, the T/C is 90 % of control under setting [1], 90 % of control under setting [5] and 90 % of control under setting [6].

Take `O=[N+]([O-])c1nccn1CC(O)CF` (stereo not drawn): the T/C is, setting by setting: (dose: 86.4 mg/kg/injection, schedule: Q01DX005 (ip), vehicle: saline + Tween-80 + alcohol) 104 % of control; (dose: 144.0 mg/kg/injection, schedule: Q01DX005 (ip), vehicle: saline + Tween-80 + alcohol) 89 % of control; (dose: 216.0 mg/kg/injection, schedule: Q01DX001 (ip), vehicle: saline + Tween-80 + alcohol) 100 % of control; (dose: 216.0 mg/kg/injection, schedule: Q01DX001 (ip), vehicle: saline with Tween-80) 100 % of control; (dose: 240.0 mg/kg/injection, schedule: Q01DX005 (ip), vehicle: saline + Tween-80 + alcohol) 103 % of control; (dose: 360.0 mg/kg/injection, schedule: Q01DX001 (ip), vehicle: saline + Tween-80 + alcohol) 104 % of control. Also, the T/C by setting is: (dose: 360.0 mg/kg/injection, schedule: Q01DX001 (ip), vehicle: saline with Tween-80) 104 % of control; (dose: 600.0 mg/kg/injection, schedule: Q01DX001 (ip), vehicle: saline + Tween-80 + alcohol) 101 % of control; (dose: 600.0 mg/kg/injection, schedule: Q01DX001 (ip), vehicle: saline with Tween-80) 101 % of control.

As to `C[Si](C)(CCl)N[Si](C)(C)CCl`, the T/C is 100 % of control (dose: 50.0 mg/kg/injection, schedule: Q01DX009 (ip), vehicle: suspension in saline); 100 % of control under setting [5]; 98 % of control (dose: 100.0 mg/kg/injection, schedule: Q01DX009 (ip), vehicle: suspension in saline); 96 % of control under setting [6]; 105 % of control (dose: 200.0 mg/kg/injection, schedule: Q01DX009 (ip), vehicle: suspension in saline); 122 % of control (dose: 400.0 mg/kg/injection, schedule: Q01DX009 (ip), vehicle: saline with Tween-80).

As for `CCOC(=O)c1ccc(NC(CCNC2CCCCC2)=NC(C)(C)C)cc1`, the T/C by setting is: under setting [1], 96 % of control; under setting [5], 97 % of control; under setting [6], 96 % of control.

Take `O=C1NC(Cc2ccccc2)C(=O)N2CSCC12` (stereo not drawn): the T/C was 94 % of control under setting [3]; 99 % of control under setting [4]; 105 % of control (dose: 400.0 mg/kg/injection, schedule: Q01DX001 (ip), vehicle: Klucel (hydroxypropylcellulose) (HPC)).

With `Cc1ccc2c(c1)nc(-c1ccccn1)n2CCc1ccccn1`, the T/C is, setting by setting: (dose: 50.0 mg/kg/injection, schedule: Q04DX002 (ip), vehicle: Klucel (hydroxypropylcellulose) (HPC)) 100 % of control; (dose: 100.0 mg/kg/injection, schedule: Q04DX002 (ip), vehicle: Klucel (hydroxypropylcellulose) (HPC)) 102 % of control; (dose: 200.0 mg/kg/injection, schedule: Q04DX002 (ip), vehicle: Klucel (hydroxypropylcellulose) (HPC)) 105 % of control.

With `CC1(C)COC2(OCC(COc3ccccc3)O2)C1O` (stereo not drawn), the T/C (dose: 60.0 mg/kg/injection, schedule: Q01DX005 (ip), vehicle: Klucel (hydroxypropylcellulose) (HPC)) is 104 % of control; the T/C (dose: 120.0 mg/kg/injection, schedule: Q01DX005 (ip), vehicle: Klucel (hydroxypropylcellulose) (HPC)) was 98 % of control; the T/C (dose: 240.0 mg/kg/injection, schedule: Q01DX005 (ip), vehicle: Klucel (hydroxypropylcellulose) (HPC)) is 98 % of control.

These data come from PubChem BioAssay AID330 (DTP/NCI, 2004).
